Laboratory results: US20230049350A1, “COMPOUNDS FOR TREATING BRAIN CANCER” (Purdue Pharmaceutical Products L.P., priority 2014, published 2023)
Read-outs that look alike come from different tables or passages of the source.

Columns and labels:
[1] = CNS pharmacokinetics by blood and brain-ventricle microdialysis, CE-UV; format: in vivo, Sprague-Dawley Rats; details: Sprague-Dawley, rat; for Cmax: intravenous, 40 mg/kg tail vein injection; for AUC(0-t): read-out: AUC (0-12) (converted); for half-life: iv, 40 mg/kg
Method: CNS pharmacokinetics was determined in rats after a tail vein injection of EDO-S101 at 40 mg/kg. Microdialysate samples were collected from the blood and a ventricle of the brain via microdialysis probes at 18 time intervals. The drug concentrations in these samples were determined by capillary electrophoresis with UV detection (CE-UV) followed by calculations for various pharmacokinetic parameters.
Six rats were anesthetized with gasiform isoflurane (1% isoflurane in a mixture of 20% oxygen and 80% nitrogen gas) and immobilized in a stereotaxic frame (KOPF Instruments, Tujunga, CA). Anaesthesia was maintained during the entire procedure. Each guide cannula (CMA Microdialysis Inc., Acton, MA) was stereotactically implanted into the lateral ventricle (AP -0.9, L 1.6, V 3.4, relative to bregma and skull), then secured to the skull by screws and dental cement. Following surgery, each rat was housed individually with food and water ad libitum for 3 days for recovery from cannulation surgery. Microdialysis experiments were carried out on conscious, freely moving rat. On the day of the experiment, the stylet in the guide cannula was replaced with the microdialysis probe (CMA/11 with 4 mm membrane, CMA Microdialysis Inc., Acton, MA) and a vascular microdialysis probe (CMA/20 with 4 mm membrane, CMA Microdialysis Inc, Acton, MA)) was implanted into the jugular vein. The probes had inlet tubes connected to syringes to deliver artificial cerebrospinal fluid (146 mM NaCl, 1.2 mM CaCl2, 3 mM KCI, 1 mM MgCl2, 1.9 mM Na2HPO4, 0.1 mM NaH2PO4, pH 7.4) into the ventricle and Dulbecco’s phosphate-buffered saline (D-PBS) into the blood at 0.5 µl/min flow rate. The outlet tubes were connected to a microfraction collector for collecting the microdailysates at 4° C. The rats were allowed to recover for at least 24 hours prior to dosing. Eighteen samples were collected over 3 hours after EDO-S101 injection (intravenously). All samples were applied to the capillary electrophoresis with UV detection (CE-UV) for the determination of concentration of EDO-S101 in the cerebrospinal fluid (CSF) and blood. The rats were sacrificed using CO2 inhalation after the experiment. The position of the probe was verified by visual inspection at the end of each experiment.
EDO-S101 in the microdialysate were measured by CE-UV (Agilent 3D CE). Briefly, the capillaries were preconditioned with 1 M sodium hydroxide for 2 min, water for 2 min and running buffer [100 mmol/l solution of ammonium acetate (adjust to pH 3.1 with acetic acid)-acetonitrile (50:50, v/v) ] for 3 min. The samples were injected at a pressure of 0.7 psi for 5 s and the injection volume was approximately 5 nl. After injection, EDO-S101 was separated in a fused silica capillary of 50 µm I.D. and 50/65 cm length (effective length/total length) under 15 kv and 25° C. The absorbance from EDO-S101 was detected with UV at […]. […].
To perform a statistical analysis on the data, a two-way repeated measures ANOVA followed by Tukey’s test was used. P<0.05 was considered significant. CNS penetration is determined as the ratio of CSF and blood area under the curve (AUC).

U251 = test: Clonogenic survival with radiotherapy, U251; format: cell-based; details: 2.5 µM or 5 µM, 24 hr, plus radiotherapy, FIG. 10
Method: (§1) In a first experiment, U251, U87 and T98G cell lines were treated with radiotherapy alone or with radiotherapy and EDO-S101.
(§2) For clonogenic survival, exponentially growing cells (70% confluence) were cultured in regular media and treated with EDO-S101 at the appropriate concentrations, or vehicle (final DMSO concentration of 0.1%) for 24 hr. Tumour cell irradiation was done using a 6 MV linear accelerator Elekta Synergy using a clinically calibrated irradiation field of 30 × 30 cm. Two cm thick plates of perspex were positioned above and below the cell culture flasks completely filled with medium to compensate for the build-up effect. Non-irradiated controls were handled identically to the irradiated cells with the exception of the radiation exposure. […] Colonies containing more than 50 cells were counted. The plating efficiency (PE) was calculated as the number of colonies observed/the number of cell plated. The surviving fraction was calculated as the number of colonies formed in the treated dishes compared with the number formed in the control. The survival curves were analyzed using SPSS (Chicago, IL) statistical software by means of a fit of the data by a weighted, stratified, linear regression, according to the linear-quadratic formula: S(D)/S(O)=exp-(aD+bD2).

U87 = test: Clonogenic survival with radiotherapy, U87; format: cell-based; details: 2.5 µM or 5 µM, 24 hr, plus radiotherapy, FIG. 10
Method: as §1, §2

[2] = CSF (brain lateral ventricle microdialysate), Brain (CSF), 40 mg/kg iv
[3] = blood (jugular vein microdialysate), Blood, 40 mg/kg iv

Cn1c(CCCCCCC(=O)NO)nc2cc(N(CCCl)CCCl)ccc21 [EDO-S101]
Cmax ([1]; CSF (brain lateral ventricle microdialysate), Brain (CSF)): 11.2 µM | Tmax [1, 2]: 5.67 min | AUC(0-t) [1, 2]: 2.27 µM·h | Cmax ([1]; blood (jugular vein microdialysate), Blood): 184 µM | Tmax [1, 3]: 2.33 min | AUC(0-t) [1, 3]: 13.7 µM·h | half-life [1, 2]: ~9 min | half-life [1, 3]: ~6 min | Kp ([1]; ratio of CSF and blood AUC, 40 mg/kg iv, read-out: AUC ratio (Brain:Blood), CNS penetration): 0.165 | % survival rate (surviving fraction) with radiotherapy versus radiotherapy alone (U251): considerably reduced | % survival rate (surviving fraction) with radiotherapy versus radiotherapy alone (U87): considerably reduced
